From patent publication US8507562B2, “Synthesis of (1)-beta-elemene, (-)-beta-elemenal, (-)-beta-elemenol, (-)-beta-elemene fluoride and their analogues, intermediates, and composition and uses thereof” (HYWE Pharmaceuticals, Inc., priority 2004, dated 2013)
Like-named read-outs stand apart in the source and are kept apart here.

Key:
[1] = system: A-172 brain tumor; experiment: MTT survival assay; assay type: cell-based, human; settings: A172, 72 h
Procedure: (§3) The MTT assay is a commonly used method in evaluation of cell survival, based on the ability of viable cells to convert MTT, a soluble tetrazolium salt [3-(4,5-dimethylthuazole-2-yl)-2,5 diphenyl tetrazolium bromide], into an insoluble formazan precipitate, which is quantitated by spectrophotometry following solubilization in dimethyl sulfoxide (DMSO).
(§4) The cells were then solubilized in 125 μl of DMSO and absorbance readings were taken using a 96-well Opsys MRI Microplate Reader (ThermoLabsystems; Chantilly, Va.). The amount of MTT dye reduction was calculated based on the difference between absorbance at 570 nm and at 630 nm. Cell viability in treated cells was expressed as the amount of dye reduction relative to that of untreated control cells. The wells which contained only medium and 10 μl of MTT were used as blanks for the plate reader. Three sets of experiments were performed in 8-12 wells for each treatment.
The cells were then solubilized in 125 μl of DMSO and absorbance readings were taken using a 96-well Opsys MRI Microplate Reader (ThermoLabsystems; Chantilly, Va.). The amount of MTT dye reduction was calculated based on the difference between absorbance at 570 nm and at 630 nm. Cell viability in treated cells was expressed as the amount of dye reduction relative to that of untreated control cells. The wells which contained only medium and 10 μI of MTT were used as blanks for the plate reader. Three sets of experiments were performed in 8-12 wells for each treatment.

[2] = system: STTG1 brain tumor; experiment: MTT survival assay; assay type: cell-based, human
Procedure: as §3, §4

[3] = system: human glioma cells; experiment: MTT assay, elemene analogs; assay type: cell-based
Procedure: as §3, §4

[4] = system: Colon Cancer Cells HCT-116; experiment: MTS cell viability assay; assay type: cell-based, human; settings: combinations with Elemene 160 μg/ml, n = 8
[5] = system: Colon Cancer Cells Caco-2; experiment: MTS cell viability assay; assay type: cell-based, human; settings: combinations with Elemene 100 μg/ml, n = 8
Procedure: (§5) Cells were maintained at 37° C. in a humidified atmosphere including 5% CO2. […] Drugs were dissolved in 100% DMSO and then diluted in medium for experiments.

[6] = system: human glioma G422 (xenograph in brain); experiment: Tumor xenographed in mice brain, survival; assay type: in vivo
Procedure: (§1) Mice model with tumor xenographed in mice brain: Glioma cell line G-422 or SHG44 (log phase) were diluted to 2×10^7/ml in cell culture hood (no bacteria environment). Each mouse was injected with 0.05 ml of tumor cell in its brain. […] The survival time of these mice was recorded in the next 30 days. The life extension was calculated using the following formula: Life Extension Rate=[( […])/Average survival days of control group[×100 Results: […]

[7] = system: human glioma SHG44 (xenograph in brain); experiment: Tumor xenographed in mice brain, survival; assay type: in vivo, nude mice; settings: for Survival time as % of control (T/C): compared to control
Procedure: as §1

[8] = system: human glioma G-422 (xenograph under skin); experiment: Xenograph under skin, injection directly into tumor; assay type: in vivo, mice; settings: for Tumor Weight X ± SD: in g (unit assumed)
Description: (§2) The mice were killed after 3 weeks.

[9] = system: human glioma SHG-44G (xenograph under skin); experiment: as above; assay type: in vivo, nude mice; settings: for Tumor Weight X ± SD: in g (unit assumed)
Description: as §2
Nude mice grew on the cengliu rack.

[10] = Blood brain barrier passage of 3H labeled Elemene; assay type: in vivo, experimental animals; settings: own animal experiment, tritium labeled, parent, derivatives and/or metabolites not distinguished
Description: But no careful experiments were done to figure out if it is beta-elemene itself, or its derivatives, or its metabolite or a combination of the above, which pass the BBB. Thus how Elemene works to treat brain tumor is unknown.

[11] = system: human liver cancer QGY
[12] = system: human breast cancer ao10/17
[13] = system: human colon cancer HCT-8
[14] = system: A549 lung cancer; experiment: MTT survival assay; settings: 2 × 10^4 cells/ml
Procedure: as §3
In brief, carcinoma cells treated with test articles alone, in 96-well tissue culture dishes were incubated with MTT (2 μg/ml) for 4 h. The cells were then solubilized in 125 μl of DMSO and absorbance readings were taken using a 96-well Opsys MRI Microplate Reader (ThermoLabsystems; Chantilly, Va.). The amount of MTT dye reduction was calculated based on the difference between absorbance at 570 nm and at 630 nm. Cell viability in treated cells was expressed as the amount of dye reduction relative to that of untreated control cells. The wells that contained only medium and 10 μl of MTT were used as blanks for the plate reader.

[15] = system: Colon Cancer Cells HCT-15; experiment: MTS cell viability assay; settings: combinations with Elemene 160 μg/ml, n = 8
Procedure: as §5

[16] = system: Colon Cancer Cells Colo 205; experiment: MTS cell viability assay; settings: Colo 205, drug alone
Procedure: as §5

[17] = system: Non-small-cell lung cancer (NSCLC) cell lines; experiment: Mechanism in NSCLC cells
[18] = 12.5 mg/kg/time iv × 10 bid, listed as β-Elemene
[19] = 25 mg/kg/time iv × 10 bid, listed as β-Elemene
[20] = 50 mg/kg/time iv × 10 bid, listed as β-Elemene

Substance: (−)-Beta-elemene
- IC50 [1]: 80 mg/L
- IC50 ([2]; STTG1, 24 h): 112 mg/L
- IC50 ([2]; STTG1, 48 h): 115 mg/L
- IC50 ([2]; STTG1, 72 h): 112 mg/L
- IC50 in human glioma cells ([3]; 24 hr): 95.52 mg/L
- IC50 in human glioma cells ([3]; 48 hr): 88.48 mg/L
- IC50 in human glioma cells ([3]; 72 hr): 93.34 mg/L
- IC50 ([4]; HCT-116, 4 hr/24 hr × 2): 203 ± 23.1 mg/L
- IC50 ([4]; HCT-116, 4 hr/24 hr × 3): 165 ± 22.0 mg/L
- IC50 ([4]; HCT-116, 4 hr/24 hr): 230 ± 25.2 mg/L
- IC50 ([4]; HCT-116, 4 hr): 363 ± 45.9 mg/L
- IC50 ([4]; HCT-116, 8 hr): 206 ± 24.2 mg/L
- IC50 ([4]; HCT-116, 12 hr): 201 ± 12.0 mg/L
- IC50 ([4]; HCT-116, 24 hr): 184 ± 26.1 mg/L
- IC50 ([4]; HCT-116, 48 hr): 163 ± 21.8 mg/L
- IC50 ([4]; HCT-116, 72 hr): 157 ± 22.0 mg/L
- IC50 ([5]; Caco-2, 4 hr/24 hr × 2): 91.0 ± 7.55 mg/L
- IC50 ([5]; Caco-2, 4 hr/24 hr × 3): 81.1 ± 10.3 mg/L
- IC50 ([5]; Caco-2, 4 hr/24 hr): 108 ± 2.55 mg/L
- IC50 ([5]; Caco-2, 4 hr): 171 ± 16.0 mg/L
- IC50 ([5]; Caco-2, 8 hr): 167 ± 32.9 mg/L
- IC50 ([5]; Caco-2, 12 hr): 104 ± 10.7 mg/L
- IC50 ([5]; Caco-2, 24 hr): 107 ± 6.00 mg/L
- IC50 ([5]; Caco-2, 48 hr): 91.0 ± 7.51 mg/L
- IC50 ([5]; Caco-2, 72 hr): 89.1 ± 9.08 mg/L
- Average Life Span (day) X± SD ([6]; 7.5 mg/kg/time iv × 10 qd): 12.3 ± 3.4 days
- Average Life Span (day) X± SD ([6]; 15 mg/kg/time iv × 10 qd): 13.1 ± 2.7 days
- Average Life Span (day) X± SD ([6]; 30 mg/kg/time iv × 10 qd): 14.1 ± 2.3 days
- Average Life Span (day) X± SD ([6]; 60 mg/kg/time iv × 10 qd): 14.9 ± 2.1 days
- Average Life Span (day) X± SD ([7]; 7.5 mg/kg/time iv × 10 qd): 20.2 ± 1.7 days
- Survival time as % of control (T/C) ([7]; 7.5 mg/kg/time iv × 10 qd): 132.84%
- Survival time as % of control (T/C) ([7]; 7.5 mg/kg/time iv × 10 qd, listed as β-Elemene): 128.72%
- Average Life Span (day) X± SD ([7]; 15 mg/kg/time iv × 10 qd): 21.8 ± 1.9 days
- Survival time as % of control (T/C) ([7]; 15 mg/kg/time iv × 10 qd): 140.46%
- Survival time as % of control (T/C) ([7]; 15 mg/kg/time iv × 10 qd, listed as β-Elemene): 139.31%
- Average Life Span (day) X± SD ([7]; 30 mg/kg/time iv × 10 qd): 23.3 ± 3.6 days
- Survival time as % of control (T/C) ([7]; 30 mg/kg/time iv × 10 qd): 150.37%
- Survival time as % of control (T/C) ([7]; 30 mg/kg/time iv × 10 qd, listed as β-Elemene): 148.69%
- Average Life Span (day) X± SD ([7]; 60 mg/kg/time iv × 10 qd): 25.2 ± 3.1 days
- Survival time as % of control (T/C) ([7]; 60 mg/kg/time iv × 10 qd): 159.81%
- Survival time as % of control (T/C) ([7]; 60 mg/kg/time iv × 10 qd, listed as β-Elemene): 160.36%
- Inhibition Rate % ([8]; 15 mg/kg it × 10 qd): 32.00%
- Tumor Weight X ± SD ([8]; 15 mg/kg it × 10 qd): 1.53 ± 0.27
- Inhibition Rate % ([8]; 30 mg/kg it × 10 qd): 47.11%
- Tumor Weight X ± SD ([8]; 30 mg/kg it × 10 qd): 1.19 ± 0.55
- Inhibition Rate % ([8]; 60 mg/kg it × 10 qd): 60.89%
- Tumor Weight X ± SD ([8]; 60 mg/kg it × 10 qd): 0.88 ± 0.24
- Inhibition Rate % ([9]; 15 mg/kg it × 10 qd): 37.83%
- Tumor Weight X ± SD ([9]; 15 mg/kg it × 10 qd): 1.15 ± 0.33
- Inhibition Rate % ([9]; 30 mg/kg it × 10 qd): 51.35%
- Tumor Weight X ± SD ([9]; 30 mg/kg it × 10 qd): 0.90 ± 0.17
- Inhibition Rate % ([9]; 60 mg/kg it × 10 qd): 63.24%
- Tumor Weight X ± SD ([9]; 60 mg/kg it × 10 qd): 0.68 ± 0.19
- blood brain barrier (BBB) passage [10]: pass the blood-brain-barrier
- blood brain barrier (BBB) passage ([10]; listed as beta-elemene): can pass blood brain barrier
- Inhibition Rate % ([11]; 12.5 mg/kg/time iv × 10 bid): 30.92%
- Tumor Weight (g) X ± SD ([11]; 12.5 mg/kg/time iv × 10 bid): 1.43 ± 0.12 g
- Inhibition Rate % ([11]; 25 mg/kg/time iv × 10 bid): 37.20%
- Tumor Weight (g) X ± SD ([11]; 25 mg/kg/time iv × 10 bid): 1.30 ± 0.18 g
- Inhibition Rate % ([11]; 50 mg/kg/time iv × 10 bid): 45.89%
- Tumor Weight (g) X ± SD ([11]; 50 mg/kg/time iv × 10 bid): 1.12 ± 0.19 g
- Inhibition Rate % ([12]; 12.5 mg/kg/time iv × 10 bid): 28.28%
- Tumor Weight (g) X ± SD ([12]; 12.5 mg/kg/time iv × 10 bid): 0.827 ± 0.06 g
- Inhibition Rate % [12, 18]: 31.08%
- Inhibition Rate % ([12]; 25 mg/kg/time iv × 10 bid): 35.03%
- Tumor Weight (g) X ± SD ([12]; 25 mg/kg/time iv × 10 bid): 0.765 ± 0.1 g
- Inhibition Rate % [12, 19]: 36.25%
- Inhibition Rate % ([12]; 50 mg/kg/time iv × 10 bid): 44.14%
- Tumor Weight (g) X ± SD ([12]; 50 mg/kg/time iv × 10 bid): 0.643 ± 0.1 g
- Inhibition Rate % [12, 20]: 46.42%
- Inhibition Rate % ([13]; 12.5 mg/kg/time iv × 10 bid): 38.32%
- Tumor Weight (g) X ± SD ([13]; 12.5 mg/kg/time iv × 10 bid): 0.928 ± 0.07 g
- Inhibition Rate % [13, 18]: 35.10%
- Inhibition Rate % ([13]; 25 mg/kg/time iv × 10 bid): 49.49%
- Tumor Weight (g) X ± SD ([13]; 25 mg/kg/time iv × 10 bid): 0.772 ± 0.05 g
- Inhibition Rate % [13, 19]: 46.01%
- Inhibition Rate % ([13]; 50 mg/kg/time iv × 10 bid): 57.15%
- Tumor Weight (g) X ± SD ([13]; 50 mg/kg/time iv × 10 bid): 0.655 ± 0.08 g
- Inhibition Rate % [13, 20]: 54.20%
- IC50 ([14]; A549, 24 h): 62.0 mg/L
- IC50 ([14]; A549, 48 h): 55.6 mg/L
- IC50 ([14]; A549, 72 h): 56.4 mg/L
- IC50 ([15]; HCT-15, 4 hr/24 hr × 2): 199 ± 11.5 mg/L
- IC50 ([15]; HCT-15, 4 hr/24 hr × 3): 165 ± 23.0 mg/L
- IC50 ([15]; HCT-15, 4 hr/24 hr): 214 ± 15.8 mg/L
- IC50 ([15]; HCT-15, 4 hr): 229 ± 26.9 mg/L
- IC50 ([15]; HCT-15, 8 hr): 215 ± 34.1 mg/L
- IC50 ([15]; HCT-15, 12 hr): 202 ± 21.8 mg/L
- IC50 ([15]; HCT-15, 48 hr): 197 ± 12.7 mg/L
- IC50 ([15]; HCT-15, 72 hr): 197 ± 22.3 mg/L
- IC50 ([16]; Time 4 hr, n = 8): 144 ± 10.4 mg/L
- IC50 ([16]; Time 4 hr/24 hr × 2, n = 8): 82.3 ± 7.11 mg/L
- IC50 ([16]; Time 4 hr/24 hr × 3, n = 8): 56.7 ± 12.6 mg/L
- IC50 ([16]; Time 4 hr/24 hr, n = 8): 96.3 ± 11.1 mg/L
- IC50 ([16]; Time 8 hr, n = 8): 116 ± 4.00 mg/L
- IC50 ([16]; Time 12 hr, n = 8): 110 ± 9.51 mg/L
- IC50 ([16]; Time 24 hr, n = 8): 83.0 ± 13.7 mg/L
- IC50 ([16]; Time 48 hr, n = 8): 75.3 ± 5.04 mg/L
- IC50 ([16]; Time 72 hr, n = 8): 77.7 ± 14.2 mg/L
- apoptosis [17]: triggered apoptosis
- cell cycle effect [17]: arrest NSCLC cells at cell cycle G2-M phase
